From paper PMC4837355, “Receptor residence time trumps drug-likeness and oral bioavailability in determining efficacy of complement C5a antagonists” (Scientific Reports, 2016)
Values joined by “and” are separate entries in the source; they are usually repeats but may differ in a detail not shown here. Equal values may be shown once. Read-outs that look alike come from different tables or passages of the source.

Tests used:
[1] = in vivo; cited from earlier work
in vivo = settings: rat; for F (oral availability): 1 mg/kg i.v. versus 10 mg/kg p.o.
Procedure: (§1) Paw oedema was induced in male Wistar rats by intraplantar administration of C5aR-PA (350 μg per paw in 100 μL of saline control). Paw swelling (% area change from baseline) was recorded at indicated timepoints. […] C5aR antagonist was administering as an intravenous dose (1 mg/kg via an implanted jugular vein catheter in 50:50 DMSO/saline) versus an oral dose (10 mg/kg in olive oil, via gavage). Plasma was collected at various time points and analyzed. Error bars are means ± SEM normalized to maximal swelling of saline control. *p < 0.05, **p < 0.01 and ***p < 0.001 by student t-test.
(§2) Male Wistar rats (6–8 wk, 250 ± 50 g) were bred at the Animal Resources Centre (Canning Vale, Australia) and housed post-shipment at the Australian Institute for Bioengineering and Nanotechnology (University of Queensland, Brisbane). […] After specific time-points, C5aR-PA was administered into the right hind paw pad (350 μg in 100 μL saline, i.pl). The left hind paw acted as a control, receiving saline only (100 μL). Rear paw thickness and width were measured at 1 h (and periodically over 4 h) post-injection using digital callipers (World Precision Instruments, Sarasota, FL, USA) and swelling was expressed as area (mm^2; thickness × width) and plotted as percentage change from baseline of each individual paw. […] Plasma was collected at various time points (0, 5, 15, 30 min, 1, 2, 3, 4, 6 and 8 h) from the jugular vein catheter and analyzed for antagonist concentrations using LCMS as described. The animal ethics committee of The University of Queensland approved all experiments according to NHMRC guidelines for the care and use of laboratory animals and in accordance with ARRIVE guidelines for reporting experiments involving animals. A total of N animals were used in each experiment as described.
Supplementary Table 1. Pharmacokinetics parameters of C5aR antagonists in
aC5aR antagonist were administered 1 mg/kg i.v. and 10 mg/kg p.o.
Vdss; volume of distribution steady
Cmax; maximal plasma concentration reached
Tmax; time of maximal Cmax
F; Fraction of intact compound absorbed to plasma (oral availability)
Supplementary Table 2. Primer sequences for target genes.

C5aR [2] = molecular target: T1, C5aR (Homo sapiens, UniProt P21730); assay: Washout residence time, calcium release in antagonist-pretreated HMDM; settings: HMDM pre-treated 1 μM antagonist 1 h, washed, challenged with 3 nM C5a
T1 sequence (P21730 1-350): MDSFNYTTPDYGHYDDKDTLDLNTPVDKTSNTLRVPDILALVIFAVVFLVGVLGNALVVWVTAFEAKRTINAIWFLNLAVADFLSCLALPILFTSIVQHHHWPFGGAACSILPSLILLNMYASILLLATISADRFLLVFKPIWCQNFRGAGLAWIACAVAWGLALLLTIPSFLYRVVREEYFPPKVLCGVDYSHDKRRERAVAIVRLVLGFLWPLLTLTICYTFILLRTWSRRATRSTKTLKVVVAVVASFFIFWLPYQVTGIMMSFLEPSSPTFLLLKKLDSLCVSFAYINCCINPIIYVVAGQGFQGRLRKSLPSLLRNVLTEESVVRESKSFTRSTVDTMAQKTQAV
Source text: Intracellular calcium release was induced in HMDM as described[40] and measured using a FLIPR instrument (Molecular Devices).

C5aR [3] = tested on: C5aR; design: method as in PMID 18595693; settings: inhibition of Ca2+ release versus […] rhC5a on U937 cells; read-out: Antagonist IC50; cited from earlier work
C5aR [4] = molecular target: T1, C5aR
Procedure: A scintillation proximity assay was used to measure the affinity of C5aR antagonists as described[39]. […] Radioligand binding was then analyzed using a Microbeta scintillation counter (PerkinElmer).

C5aR [5] = molecular target: T1, C5aR; assay: In vitro migration (chemotaxis) assay of HMDM; assay type: cell-based; design: monocytes were isolated from buffy coats of anonymous donors; endogenous in cells; host or cells: primary human monocyte-derived macrophages (CD14+ monocytes from donor buffy coats, matured with M-CSF); settings: antagonist 1 μM, 1 h then washed; 3 nM C5a for 16 h
Source text: Antagonists with a short residence time will be ineffective in this assay, because once the antagonist has dissociated from C5aR, C5a immediately binds and induces migration. […] Chemotactic index is expressed as fold change against control. […] Excess unbound antagonists were washed with serum-free medium and HMDM (0.1 × 10^6 cells/mL) then seeded into 5 μm Transwell inserts (Corning) creating a modified Boyden chamber. […] Migrated cells on the lower side of the membrane were stained with DAPI and counted. The chemotactic index was expressed as fold change versus control.

C5aR [6] = molecular target: T2, C5aR (Rattus norvegicus, UniProt P97520); assay: C5aR-PA-induced rat paw oedema; assay type: in vivo, male Wistar rats; settings: for Effect on paw swelling after 2 h / Reduction in paw swelling: 30 mg/kg p.o.; for Reduction in paw swelling: at 30 min post-injection of C5aR-PA
T2 construct: C5aR-mediated rat paw oedema was induced by intraplantar administration of 350 μg C5aR-PA per hind paw; from tissue; host or cells: living male Wistar rats (hind paw)
T2 sequence (P97520 1-352): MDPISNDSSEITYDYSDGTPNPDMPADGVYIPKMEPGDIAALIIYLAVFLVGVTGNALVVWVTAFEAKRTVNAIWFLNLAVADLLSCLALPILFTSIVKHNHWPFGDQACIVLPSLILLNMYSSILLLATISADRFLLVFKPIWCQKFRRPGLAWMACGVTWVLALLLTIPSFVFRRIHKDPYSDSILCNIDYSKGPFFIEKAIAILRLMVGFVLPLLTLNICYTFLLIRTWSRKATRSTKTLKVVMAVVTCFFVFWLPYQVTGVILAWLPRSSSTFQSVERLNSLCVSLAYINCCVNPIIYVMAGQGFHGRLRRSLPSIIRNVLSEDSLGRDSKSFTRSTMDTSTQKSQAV
Procedure: as §1
as §2, with “C5aR-mediated rat paw oedema was induced by intraplantar administration of 350 μg C5aR-PA per hind paw (Supplementary Fig. 5A). […] Male” for “Male”

C5aR [7] = molecular target: T1, C5aR; assay: Intracellular calcium release assay in HMDM against rhC5a; settings: for IC50: HMDM calcium release
Procedure: The concentration-response curves for calcium mobilization induced by rhC5a were determined in the presence of escalating concentrations of each of the three antagonists (Fig. 2D–F). […] Error bars are means ± SEM of three independent experiments (n = 3).
Figure 3 Dependence of antagonist potencies (IC50) on C5a concentration in human monocyte-derived macrophages. […] Calculated pIC50 ± SEM and IC50 values for the three C5aR antagonists are summarized in the table versus concentration of C5a. Error bars are means ± SEM of three independent experiments (n = 3).

C5aR [8] = molecular target: T1, C5aR; assay: C5a-induced inflammatory gene expression in HMDM (real-time PCR); settings: 1 μM antagonist, 10 nM C5a at 16 h post-antagonist treatment
Procedure: Real-time PCR analyses were conducted to further check the effect of residence time in other assays. […] Gene expression was measured by real-time PCR, normalized against 18S and converted to fold change relative to control.
RNA was extracted from cells using ISOLATE II RNA Kit (Bioline) following manufacturer’s instructions. Real-time PCR was performed using 7900HT real-time with SYBR® Green PCR master mix (Applied Biosystems) and primers. Relative gene expression was normalized against 18S rRNA expression and expressed as fold change against control samples.

C5aR [9] = settings: inhibition of Ca2+ release versus 0.1nM rhC5a on neutrophils; read-out: Antagonist IC50; cited from earlier work
C5a-induced neutropenia = tested on: C5a-induced neutropenia; design: method as in PMID 12384495; settings: cited from earlier work
[10] = male, Wistar, plasma, intravenous, 1 mg/kg
[11] = male, Wistar, plasma, iv, 1 mg/kg
[12] = male, Wistar, plasma, oral, 10 mg/kg
[13] = male, Wistar, plasma, po, 10 mg/kg

Compound | half-life (in vivo; male, Wistar, plasma) [min] | Vd (in vivo; [10]) [L/kg] | clearance (in vivo; [10]) [mL/min/kg] | AUC (in vivo; [11]) [ng·h/mL] | Cmax (in vivo; [12]) [ng/mL] | AUC (in vivo; [13]) [ng·h/mL] | F (oral availability) (in vivo) | Ki (C5aR [4]) [nM] | Effect on paw swelling after 2 h (C5aR [6]) | Reduction in paw swelling (C5aR [6]) [%] | IC50 (C5aR [7]; IC50, C5a 3 nM) [nM] | IC50 (C5aR [7]; IC50, C5a 10 nM) [nM] | IC50 (C5aR [7]; IC50, C5a 30 nM) [nM] | IC50 (C5aR [7]; IC50, C5a 100 nM) [nM] | IC50 (C5aR [7]; IC50, C5a 300 nM) [nM] | IC50 (C5aR [7]; pIC50 ± SEM, C5a 1 nM) [nM] | also measured
CC(=O)N[C@@H](Cc1ccccc1)C(=O)N[C@H]1CCCNC(=O)[C@H](CCCNC(=N)N)NC(=O)[C@H](Cc2c[nH]c3ccccc23)NC(=O)[C@@H](CC2CCCCC2)NC(=O)[C@@H]2CCCN2C1=O [3D53, Ac-Phe-[Orn-Pro-D-Cha-Trp-Arg]] | – | – | – | – | – | – | – | – | – | – | – | – | – | – | – | – | Safety and tolerability [1]: safe and well tolerated; Tmax (in vivo; male, Wistar, in vivo, po): 50 min; Cmax (in vivo; in vivo): 17.5 ng/mL; Vd (in vivo; in vivo): 4.1 L/kg; clearance (in vivo; in vivo): 52.1 mL/min/kg; half-life (in vivo; in vivo): 21.6 min; AUC (in vivo; in vivo, iv, 1 mg/kg): 323 ng·h/mL; AUC (in vivo; in vivo, po, 10 mg/kg): 76.6 ng·h/mL
CCc1cccc(CC)c1-c1cc(OC(C)C)c2c(n1)CCCC2Nc1ccccc1CCO (stereo not drawn) [JJ47] | 43.2 | 3.5 | 41 | 410 | 127 | 501 | 12.2% and ~ 12% | 316 | not much different to W54011 | 15 | 10 | 122 | 509 | 632 | 1070 | 1.58 | Half-life t1/2 ± SEM (residence time on C5aR) (C5aR [2]): 36 ± 12 min; IC50 (C5aR [3]): 7 nM; Block of C5a-induced migration (C5aR [5]): not effective antagonists; Kb (C5aR [7]): 5.01 nM; Antagonist mechanism (C5aR [7]; C5a concentration-response curves with escalating antagonist, HMDM): surmountable antagonists; IC50 (C5aR [7]; IC50, C5a 1 nM): 2 nM; Schild plot slope (C5aR [7]; against rhC5a, calcium release, HMDM): 0.94; Block of C5a-mediated expression of TNF, IL1B, CCL3 and PTGS2 (C5aR [8]): did not
COc1ccc2c(c1)C(C(=O)N(Cc1ccc(N(C)C)cc1)c1ccc(C(C)C)cc1)CCC2 (stereo not drawn) [W54011] | 124 | 18.3 | 82.8 | 212 | 484 | 1570 | ~ 74% | 79.4 | no longer effective | 35 | 9 | 24 | 55 | 350 | 1460 | 3.98 | bioavailability (in vivo; [13]): 74.3%; IC50 (C5aR [9]): 3 nM; Block of C5aR-PA-induced paw swelling (C5aR [6]; 5 mg/kg per oral): did not block; Effect on C5aR-PA-induced paw swelling (C5aR [6]; 10 mg/kg p.o.): did not have much effect; IC50 (C5aR [7]; pIC50 ± SEM, C5a 3 nM): 7.94 nM; Doses blocking C5a-induced gerbil neutropenia (C5a-induced neutropenia): 3 to 30 mg/kg
